Measured values: ChEMBL document CHEMBL5223103, “FLT3 inhibitors for acute myeloid leukemia: successes, defeats, and emerging paradigms” (RSC Med Chem, 2022)
pIC50: −log10 of the molar value.

What was measured:
[1] = Growth inhibition of mouse 32D cells harboring FLT3-ITD mutant assessed as growth inhibition by WST assay; assay type: functional
[2] = Growth inhibition of mouse 32D cells harboring FLT3-ITD-D835Y mutant assessed as growth inhibition WST assay; assay type: functional
[3] = Growth inhibition of mouse 32D cells harboring FLT3-D835Y mutant assessed as growth inhibition WST assay; assay type: functional
[4] = Growth inhibition of mouse 32D cells harboring FLT3-ITD-Y842C mutant assessed as growth inhibition WST assay; assay type: functional
[5] = tested on: EOL1; assay: Growth inhibition of human EOL1 cells assessed as reduction in cell growth by cell viability assay; assay type: functional
[6] = tested on: THP-1; assay: Growth inhibition of human THP-1 cells assessed as reduction in cell growth by cell viability assay; assay type: functional
[7] = tested on: Kasumi 1; assay: Growth inhibition of human Kasumi 1 cells assessed as reduction in cell growth by cell viability assay; assay type: functional
[8] = Growth inhibition of mouse 32D cells harboring FLT3-ITD-F691L mutant assessed as growth inhibition WST assay; assay type: functional
[9] = tested on: K562; assay: Growth inhibition of human K562 cells assessed as reduction in cell growth by cell viability assay; assay type: functional
[10] = tested on: MV4-11; assay: Growth inhibition of human MV4-11 cells assessed as reduction in cell growth by cell viability assay; assay type: functional
[11] = tested on: MOLM-14; assay: Growth inhibition of human MOLM-14 cells assessed as reduction in cell growth by cell viability assay; assay type: functional
[12] = tested on: MOLM-13; assay: Growth inhibition of human MOLM-13 cells assessed as reduction in cell growth by cell viability assay; assay type: functional
[13] = Growth inhibition of mouse 32D cells harboring FLT3-ITD-Y842H mutant assessed as growth inhibition WST assay; assay type: functional
[14] = tested on: BaF3; assay: Growth inhibition of mouse BaF3 cells transfected with FLT3-ITD assessed as inhibition of cell growth measured after 48 hrs by MTT assay; assay type: functional
[15] = tested on: BaF3; assay: Growth inhibition of mouse BaF3 cells transfected with FLT3-D835Y assessed as inhibition of cell growth measured after 48 hrs by MTT assay; assay type: functional
[16] = tested on: BaF3; assay: Growth inhibition of mouse BAF3 cells harboring FLT3 ITD mutant assessed as reduction in cell inhibition measured after 72 hrs by MTT assay; assay type: functional
[17] = tested on: MOLM-13; assay: Growth inhibition of human MOLM-13 cells by WST-8 assay; assay type: functional
[18] = biological target: Interleukin-1 receptor-associated kinase 1 (Homo sapiens, UniProt P51617); assay: Inhibition of IRAK-1 (unknown origin)
[19] = tested on: MV4-11; assay: Growth inhibition of human MV4-11 cells by WST-8 assay; assay type: functional
[20] = tested on: BaF3; assay: Growth inhibition of mouse BaF3 cells transfected in FLT3-ITD mutant measured after 72 hrs by CCK8 assay; assay type: functional
[21] = biological target: Macrophage colony-stimulating factor 1 receptor (Homo sapiens, UniProt P07333); assay: Inhibition of FMS (unknown origin)
[22] = tested on: BaF3; assay: Growth inhibition of mouse BaF3 cells transfected in FLT3-TDK mutant measured after 72 hrs by CCK8 assay; assay type: functional
[23] = tested on: MOLM-13; assay: Growth inhibition of human MOLM-13 cells harboring FLT3 resistant inhibitor assessed as growth inhibition; assay type: functional

Chain of Interleukin-1 receptor-associated kinase 1 (P51617 whole entry): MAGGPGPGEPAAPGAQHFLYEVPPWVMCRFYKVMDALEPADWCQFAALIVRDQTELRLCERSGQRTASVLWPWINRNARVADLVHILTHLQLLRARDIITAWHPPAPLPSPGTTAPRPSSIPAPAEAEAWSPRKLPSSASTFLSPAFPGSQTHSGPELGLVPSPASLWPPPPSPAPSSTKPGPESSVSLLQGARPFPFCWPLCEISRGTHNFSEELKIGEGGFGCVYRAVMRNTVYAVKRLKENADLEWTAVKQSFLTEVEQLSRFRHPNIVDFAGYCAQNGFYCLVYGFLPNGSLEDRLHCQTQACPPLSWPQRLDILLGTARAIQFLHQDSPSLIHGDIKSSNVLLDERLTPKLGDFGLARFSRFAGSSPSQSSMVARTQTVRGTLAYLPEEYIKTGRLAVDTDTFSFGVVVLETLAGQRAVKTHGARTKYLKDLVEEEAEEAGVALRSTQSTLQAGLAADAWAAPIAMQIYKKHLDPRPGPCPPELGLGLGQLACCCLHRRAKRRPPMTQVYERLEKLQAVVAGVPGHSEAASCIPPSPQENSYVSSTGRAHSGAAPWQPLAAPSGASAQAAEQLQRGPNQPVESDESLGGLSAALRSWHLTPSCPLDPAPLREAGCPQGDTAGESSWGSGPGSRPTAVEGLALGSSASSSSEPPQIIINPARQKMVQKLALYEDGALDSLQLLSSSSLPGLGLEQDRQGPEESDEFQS
Chain of Macrophage colony-stimulating factor 1 receptor (P07333 whole entry): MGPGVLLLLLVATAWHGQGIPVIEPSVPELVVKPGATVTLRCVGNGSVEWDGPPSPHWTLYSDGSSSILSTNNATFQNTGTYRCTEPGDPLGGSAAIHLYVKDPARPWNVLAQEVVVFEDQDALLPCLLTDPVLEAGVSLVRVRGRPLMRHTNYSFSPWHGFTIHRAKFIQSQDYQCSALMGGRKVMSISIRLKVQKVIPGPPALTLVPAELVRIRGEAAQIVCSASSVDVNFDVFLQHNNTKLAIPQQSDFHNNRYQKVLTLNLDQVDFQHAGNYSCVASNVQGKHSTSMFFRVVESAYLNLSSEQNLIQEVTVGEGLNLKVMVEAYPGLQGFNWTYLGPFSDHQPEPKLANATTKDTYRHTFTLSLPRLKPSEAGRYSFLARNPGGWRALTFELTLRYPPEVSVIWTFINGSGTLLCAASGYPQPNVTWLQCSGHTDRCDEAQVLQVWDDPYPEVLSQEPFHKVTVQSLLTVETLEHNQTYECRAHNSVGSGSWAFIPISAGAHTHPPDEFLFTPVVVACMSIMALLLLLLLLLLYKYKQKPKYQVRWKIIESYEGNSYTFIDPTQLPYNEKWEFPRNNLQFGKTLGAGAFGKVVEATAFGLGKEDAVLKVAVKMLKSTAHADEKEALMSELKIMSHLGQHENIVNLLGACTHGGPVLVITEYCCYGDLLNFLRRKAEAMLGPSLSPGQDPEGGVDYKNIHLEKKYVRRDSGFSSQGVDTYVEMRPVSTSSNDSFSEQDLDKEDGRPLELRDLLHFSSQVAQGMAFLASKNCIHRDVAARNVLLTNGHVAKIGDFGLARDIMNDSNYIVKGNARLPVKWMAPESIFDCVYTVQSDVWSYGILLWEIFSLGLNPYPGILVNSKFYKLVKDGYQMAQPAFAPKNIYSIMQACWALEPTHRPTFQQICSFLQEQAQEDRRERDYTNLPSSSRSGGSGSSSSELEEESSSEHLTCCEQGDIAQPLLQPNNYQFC

Q: With `CCCNc1nc(Nc2ccc(C#N)cc2)ncc1C#CCCCNC(=O)[C@H](C)N(C)C(=O)/C=C/CN(C)C` [FF-10101] as the molecule, how does the GI50 [1] read?
A: The GI50 was 1.9 nM.

Q: And the GI50 [2]?
A: The GI50 was 0.81 nM.

Q: And the GI50 [3]?
A: Its GI50 is 1.1 nM.

Q: And the GI50 [4]?
A: Its GI50 is 3.5 nM.

Q: And the GI50 [5]?
A: Its GI50 is 72 nM.

Q: And the GI50 [6]?
A: Its GI50 is greater than 1000 nM.

Q: What about the GI50 [7] of the same molecule?
A: Its GI50 is 26 nM.

Q: And the GI50 [8]?
A: The GI50 was 10 nM.

Q: What about the GI50 [9] of the same molecule?
A: The GI50 was greater than 1000 nM.

Q: And the GI50 [10]?
A: Its GI50 is 0.83 nM.

Q: And the GI50 [11]?
A: The GI50 was 1.5 nM.

Q: What about the GI50 [12] of the same molecule?
A: Its GI50 is 1.1 nM.

Q: What about the GI50 [13] of the same molecule?
A: The GI50 was 5.3 nM.

Q: For `CCc1nc(C(N)=O)c(Nc2ccc(N3CCC(N4CCN(C)CC4)CC3)c(OC)c2)nc1NC1CCOCC1` [GILTERITINIB], which GI50 [14] is on record?
A: The GI50 was 1.8 nM.

Q: What about the GI50 [15] of the same molecule?
A: Its GI50 is 1.6 nM.

Q: With `C[C@]12O[C@H](C[C@]1(O)CO)n1c3ccccc3c3c4c(c5c6ccccc6n2c5c31)CNC4=O` [LESTAURTINIB] as the molecule, how does the GI50 [16] read?
A: The GI50 was 5 nM.

Q: With `C1=N/C2=N/c3ccc(OCCN4CCCC4)c(c3)COC/C=C/COCc3cccc(c3)C(=C1)N2` [PACRITINIB] as the molecule, how does the GI50 [17] read?
A: The GI50 was 73 nM.

Q: What about the pIC50 [18] of the same molecule?
A: Its pIC50 is 7.87.

Q: And the GI50 [19]?
A: The GI50 was 33 nM.

Q: And the GI50 [20]?
A: The GI50 was 133 nM.

Q: What about the pIC50 [21] of the same molecule?
A: Its pIC50 is 7.40.

Q: What about the GI50 [22] of the same molecule?
A: Its GI50 is less than 434 nM.

Q: What about the GI50 [23] of the same molecule?
A: Its GI50 is 173 nM.
